Read-outs that look alike come from different tables or passages of the source.
Legend:
Assay in all cases: Greenhouse test, pre-emergence treatment
[1] = system: COMBE; type: in vivo, Commelina benghalensis; conditions: Commelina benghalensis, pre-emergence, 480 h
Method in brief: (§1)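 Seeds were sown in loamy sand with approximately 3.0% humus, then sprayed at once with actives suspended or emulsified in water. Pots were watered, hooded until rooting, held at 10-25° C. or 20-35° C. by species for 2 to 4 weeks, and scored 0 (no damage) to 100 (no emergence/complete destruction).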

[2] = system: BRADC; type: in vivo, Brachiaria decumbens; conditions: Urochloa decumbens, pre-emergence, 480 h, pre-emergence, 36 g ai/ha; read-out: observed % activity 20 DAT
Method in brief: as §1

[3] = system: SETFA; type: in vivo, Setaria faberi; conditions: Setaria faberi, 480 h, SETFA, individual, read-out: observed % activity 20 DAT
Method in brief: as §1

[4] = system: POLCO; type: in vivo, Polygonum convolvulus; conditions: Fallopia convolvulus, pre-emergence, 480 h; for inhibition at 6.25 g/ha: use rate 6.25 g ai/ha
Method in brief: as §1

[5] = system: EPHHL; type: in vivo, Euphorbia heterophylla; conditions: Euphorbia heterophylla, pre-emergence, 480 h, 20 DAT, read-out: observed % activity
Method in brief: as §1

[6] = system: ECHCG; type: in vivo, Echinocloa crus-galli; conditions: Echinochloa crus-galli, 480 h, ECHCG, use rate 3.125 g ai/ha, 20 DAT, read-out: observed % activity 20 DAT
Method in brief: as §1

[7] = system: GERPU; type: in vivo, Geranium pusillum; conditions: Geranium pusillum, pre-emergence, 480 h, 20 DAT, read-out: observed % activity
Method in brief: as §1

[8] = system: KCHSC; type: in vivo, Kochia scoparia
Method in brief: as §1

[9] = system: LOLMU; type: in vivo, Lolium multiflorum; conditions: Lolium multiflorum, pre-emergence, 480 h, LOLMU, pre-emergence, individual, use rate 6.25 g ai/ha; read-out: observed % activity 20 DAT
Method in brief: as §1

[10] = system: GALAP; type: in vivo, Galium aparine; conditions: Galium aparine, pre-emergence, 480 h, pre-emergence, read-out: observed % activity 20 DAT
Method in brief: as §1

[11] = system: ABUTH; type: in vivo, Abutilon theophrasti; conditions: Abutilon theophrasti, 480 h
Method in brief: as §1

[12] = system: ALOMY; type: in vivo, Alopecurus myosuroides; conditions: Alopecurus myosuroides, pre-emergence, 480 h, ALOMY, pre-emergence, read-out: observed % activity 20 DAT
Method in brief: as §1

[13] = system: ELEIN; type: in vivo, Eleusine indica; conditions: Eleusine indica, 480 h, read-out: observed % activity 20 DAT
Method in brief: as §1

[14] = 5 g ai/ha, 20 DAT, read-out: observed % activity
[15] = 10 g ai/ha, 20 DAT, read-out: observed % activity
[16] = 10 g ai/ha, read-out: observed % activity 20 DAT

CC(C)N(C)S(=O)(=O)NC(=O)c1cc(-n2c(=O)cc(C(F)(F)F)n(C)c2=O)c(F)cc1Cl [Saflufenacil, saflufenacil]
15%: inhibition at 10 g/ha ([1]; COMBE, individual, use rate 10 g ai/ha, read-out: observed % activity 20 DAT) | inhibition at 10 g/ha [1, 16]
35%: inhibition at 18 g/ha ([13]; 18 g ai/ha)
60%: inhibition at 5 g/ha [4, 14]
65%: inhibition at 5 g/ha [1, 14] | inhibition at 10 g/ha [4, 15] | inhibition at 10 g/ha ([8]; Bassia scoparia, pre-emergence, 480 h, KCHSC, pre-emergence, individual, use rate 10 g ai/ha, read-out: observed % activity 20 DAT) | inhibition at 10 g/ha ([8]; Bassia scoparia, pre-emergence, 480 h, pre-emergence, 10 g ai/ha, read-out: observed % activity 20 DAT)
80%: inhibition at 5 g/ha ([5]; 5 g ai/ha)
25%: inhibition at 10 g/ha ([4]; POLCO, individual, use rate 10 g ai/ha, read-out: observed % activity 20 DAT) | inhibition at 10 g/ha [4, 16] | inhibition at 5 g/ha ([7]; 5 g ai/ha) | inhibition at 10 g/ha ([7]; 10 g ai/ha) | inhibition at 5 g/ha ([10]; GALAP, individual, use rate 5 g ai/ha) | inhibition at 5 g/ha ([10]; 5 g ai/ha) | inhibition at 10 g/ha [11, 16] | inhibition at 10 g/ha ([11]; ABUTH, individual, use rate 10 g ai/ha, read-out: observed % activity 20 DAT)
70%: inhibition at 6.25 g/ha ([4]; POLCO, individual, read-out: observed % activity 20 DAT) | inhibition at 6.25 g/ha ([4]; POLCO, 20 DAT, read-out: observed % activity 20 DAT) | inhibition at 5 g/ha ([8]; Bassia scoparia, pre-emergence, 480 h, 5 g ai/ha, 20 DAT, read-out: observed % activity) | inhibition at 5 g/ha ([8]; Bassia scoparia, pre-emergence, 480 h, KCHSC, pre-emergence, individual, use rate 5 g ai/ha, read-out: observed % activity 20 DAT) | inhibition at 12.5 g/ha ([8]; Bassia scoparia, pre-emergence, 480 h, KCHSC, pre-emergence, individual, use rate 12.5 g ai/ha, read-out: observed % activity 20 DAT) | inhibition at 5 g/ha ([8]; Bassia scoparia, pre-emergence, 480 h, pre-emergence, 5 g ai/ha, read-out: observed % activity 20 DAT)
98%: inhibition at 10 g/ha [1, 15]
95%: inhibition at 10 g/ha ([5]; 10 g ai/ha) | inhibition at 36 g/ha ([13]; 36 g ai/ha)
0%: inhibition at 5 g/ha ([1]; COMBE, individual, use rate 5 g ai/ha, read-out: observed % activity 20 DAT) | inhibition at 5 g/ha ([1]; 5 g ai/ha, read-out: observed % activity 20 DAT) | inhibition at 6.25 g/ha ([3]; use rate 6.25 g ai/ha) | inhibition at 12.5 g/ha ([3]; use rate 12.5 g ai/ha) | inhibition at 3.125 g/ha [6] | inhibition at 6.25 g/ha [9] | inhibition at 6.25 g/ha ([12]; individual, use rate 6.25 g ai/ha) | inhibition at 12.5 g/ha ([12]; individual, use rate 12.5 g ai/ha) | inhibition at 3.125 g/ha ([12]; use rate 3.125 g ai/ha, 20 DAT)
50%: inhibition at 10 g/ha ([10]; GALAP, individual, use rate 10 g ai/ha) | inhibition at 10 g/ha ([10]; 10 g ai/ha)
30%: inhibition at 6.25 g/ha ([8]; Bassia scoparia, pre-emergence, 480 h, KCHSC, pre-emergence, individual, use rate 6.25 g ai/ha, read-out: observed % activity 20 DAT)
85%: inhibition at 12.5 g/ha ([4]; POLCO, individual, use rate 12.5 g ai/ha, read-out: observed % activity 20 DAT) | observed % activity ([8]; 5 g ai/ha, 20 DAT)
90%: inhibition at 36 g/ha [2] | inhibition at 10 g/ha [11, 15]

Reference: patent publication US9999222B2, “Herbicidal combination comprising azines” (BASF SE, priority 2014, dated 2018)
